Data reported in patent US6635664B1, “Insecticide compositions and method for destroying insects” (priority 1999, dated 2003).
Where “and” joins values, the source holds several entries; their conditions need not be identical. Equal entries are not always repeated.

Key:
silverleaf whiteflies [1] = experiment: Test Example 1: spray test on cabbage seedlings infested with silverleaf whiteflies; format: in vivo; conditions: 50 ppm, total of adults and larvae on cabbage seedlings; for Number of surviving insects/pot after 8 days: 8 days after spray treatment; for Number of surviving insects/pot before: just before treatment
Procedure: (§1) Cabbage seedlings planted in 3 ounces plastic cup were placed in a net cage containing many living silverleaf whiteflies for 24 hours, so that many silverleaf whiteflies became parasitic on the cabbage seedlings. A designated amount of each of pyriproxyfen EC (commercial name, Lano emulsifiable concentrate : produced by Sumitomo Chemical Co., Ltd.), chlothianidine EC (emulsifiable concentrate prepared by mixing 10 parts of chlothianidine, 8 parts of polyoxyethylenealkyl aryl ether, 2 parts of sodium alkylarylsulfonate and 80 parts of xylene), and the present invention composition prepared according to formulation example 1 was diluted with water, and then sprayed over the cabbage seedlings with a spray gun. The number of silverleaf whiteflies (i.e., the total number of adults and larvae) surviving on the cabbage seedlings was examined just before and after 8 days from the treatment.

silverleaf whiteflies [2] = experiment: Test Example 2: spray test on cabbage seedlings infested with silverleaf whiteflies (10:1 and 1:10 mixtures); format: in vivo; conditions: 10 ppm; just before treatment; total of adults and larvae on cabbage seedlings
Procedure: as §1, with “pyriproxyfen EC.” for “pyriproxyfen EC”, “emulsifiable concentrate:” for “emulsifiable concentrate :”, “prepared by mixing the pyriproxyfen EC with chlothianidine EC at 10:1 and 1:10 by weight” for “prepared according to formulation example 1”

Row | SMILES | Number of surviving insects/pot after 8 days (silverleaf whiteflies [1]) [insects/pot] | Number of surviving insects/pot before (silverleaf whiteflies [1]) [insects/pot] | Number of surviving insects/pot before (silverleaf whiteflies [2])
1 | CN/C(=N\[N+](=O)[O-])NCc1cnc(Cl)s1 [chlothianidine, (E)-1-(2-chlorothiazol-5-ylmethyl)-3-methyl-2-nitroguanidine] | 70 | 66 | –
2 | CC(COc1ccc(Oc2ccccc2)cc1)Oc1ccccn1 (centres unmarked) [pyriproxyfen, 4-phenoxyphenyl 2-(2-pyridyloxy)propyl ether] | 21 | 65 | 81 insects/pot and 62 insects/pot
